Experimental data taken from patent US20250339408A1, “TREATMENT AND PREVENTION OF BASAL CELL CARCINOMA WITH TOPICAL COMPOSITION COMPRISING PATIDEGIB” (Sol-Gel Technologies Ltd., priority 2023, published 2025).

Experiments:
[1] = tested on: basal cell carcinoma (BCC) lesions on the face; test: Randomized, double-blind, vehicle-controlled study of Patidegib Topical Gel, 2% in Gorlin syndrome participants, ITT, all types of subjects (Example 3); type: in vivo, human; details: PTCH1 mutation not required, gel 2% twice daily to face
Description: (§1) A randomized, double-blind, stratified, vehicle-controlled study was done, measuring the efficacy and safety of Patidegib Topical Gel, 2%, applied topically twice daily to the face of adult participants with Gorlin syndrome. The Participants were required to apply the investigational product for 12 months. The primary endpoint is a comparison between the two treatment arms of the number of new BCCs that develop over the 12 month period.
Participants will be randomized to receive Patidegib Topical Gel, 2%. The Patidegib Topical Gel, 2% will be dispensed to participants at each study visit and applied topically twice daily to the face.
Participants will be randomized to receive Vehicle. The Patidegib Topical Gel, Vehicle will be dispensed to participants at each study visit and applied topically twice daily to the face.
• 1. The participant must be age at least 18 years of age at the Screening Visit. • 2. The participant must provide written informed consent prior to any study procedures. • 3. The participant must meet diagnostic criteria for the basal cell nevus (Gorlin) syndrome including major criterion #3a plus 1 additional major criterion or plus 2 additional minor criteria listed below.
• a. >2 histologically confirmed BCCs or 1 for participant under age 20. • b. Odontogenic keratocysts of the jaw confirmed histologically. • c. ≥3 palmar and/or plantar pits seen at the Screening Visit. • d. Bilamellar calcification of the falx cerebri present at less than 20 years of age. • e. Fused, bifid, or markedly splayed ribs. • f. First degree relative with Gorlin syndrome. • g. Patched protein 1 (PTCH1) mutation predicted to be of functional significance in normal tissue.
• h. Macrocephaly. • i. Congenital malformations including frontal bossing, cleft lip or palate, “coarse face”, moderate to severe hypertelorism. • j. Skeletal abnormalities detectable clinically: Sprengel deformity, marked pectus deformity, or marked finger syndactyly. • k. Skeletal abnormalities detectable radiographically: bridging of the sella turcica; vertebral abnormalities such as hemivertebrae, fusion or elongation of the vertebral bodies; modeling defects of the hands and feet; flame shaped lucencies of the hands or feet. • l. Ovarian fibroma. • m. Medulloblastoma (Modification of criteria of V Kimonis et al Am J Med Genet 69: 299-308, 1997). • 4. The participant must have 10 (with at least 3 on the face) clinically typical BCCs present within 24 months prior to Randomization (Baseline/Day 1). Additionally, the subject must have at least 2 BCCs with longest diameter <5 mm present on the face prior to Randomization (Baseline/Day 1). • 5. […] The participant is willing for all facial BCCs to be evaluated and treatment recommendations made only by the Investigator. • 10. […]

[2] = tested on: basal cell carcinoma (BCC) lesions on the face; test: Post hoc analysis of the Example 3 trial: Gorlin patients without PTCH1 mutation (Example 4); type: in vivo, human; details: for Number of qualifying nSEBs, observed, Mean / Number of new BCCs excluding no longer suspicious BCCs, observed, Mean: Gorlin syndrome without PTCH1 mutation, gel 2% twice daily to face; for Number of qualifying nSEBs, observed, Mean: baseline total BCC lesions at least 10; for Number of new BCCs excluding no longer suspicious BCCs, observed, Mean: baseline total facial BCC lesions at least 10
Description: as §1
A post hoc analysis was performed on the results of the clinical trial of Example 3 to analyze the impact of Patidegib on patients without PTCH1 mutation.

In the case of CC1=C2C[C@H]3[C@@H](CC[C@@H]4C[C@H](NS(C)(=O)=O)CC[C@@]43C)[C@@H]2CC[C@@]2(C1)O[C@@H]1C[C@H](C)CN[C@H]1[C@H]2C [Patidegib], the “Proportion of SEBs clinically resolved, observed, Mean” value (“Proportion” for short) ([1]; month 3) is reported as 7.72, the “Proportion” value ([1]; month 6) is reported as 6.91 and the “Proportion” value ([1]; month 9) is reported as 9.13. The “Proportion” value ([1]; month 12) was 15.03, the “Overall efficacy (in words)” value ([2]; Gorlin syndrome subjects who lacked the PTCH1 mutation (Examples 3 and 4)) was “produced no effect” and the “Number of qualifying nSEBs, observed, Mean” value (from here on “Number of qualifying nSEBs”) ([2]; month 3) was 0.25. The “Number of qualifying nSEBs” value ([2]; month 6) was 0.92, the “Number of qualifying nSEBs” value ([2]; month 9) was 1.38 and the “Number of qualifying nSEBs” value ([2]; month 12) was 2.50. The “Number of new BCCs excluding no longer suspicious BCCs, observed, Mean” value ([2]; month 3) was 1.00, the “Number of new BCCs excluding no longer suspicious BCCs, observed, Mean” value ([2]; month 6) was 2.92 and the “Number of new BCCs excluding no longer suspicious BCCs, observed, Mean” value ([2]; month 9) was 4.75. For the same compound, the “Number of new BCCs excluding no longer suspicious BCCs, observed, Mean” value ([2]; month 12) was 6.67.
